The values below are quoted from earlier work in patent publication US20240216546A1, “MODEL OPTIMIZED DRUG AND DRUG COMBINATIONS FOR TREATING CANCERS” (My Personal Therapeutics, priority 2021, published 2024).

This data set concerns non-small cell lung cancer. Particulars: erlotinib in combination with first line chemotherapy (carboplatin and paclitaxel).
Setting [1] is: patients with the KRAS mutation.

For `C#Cc1cccc(Nc2ncnc3cc(OCCOC)c(OCCOC)cc23)c1` [erlotinib], where the note is “group with wild-type KRAS”, the time-to-progression was 12 months. Besides, under setting [1], the overall survival result is “four” and the time to progression entry is reported as “three”.
